# Measured values reported in patent US12262712B2, “Oxime ether compound and application thereof” (SHENYANG SINOCHEM AGROCHEMICALS R&D CO., LTD., priority 2019, dated 2025).
# Experiments:
# [1] = tested on: soybean rust; assay: In vivo pot determination, control effect on soybean rust; conditions: foliar spray
# Experimental: (§1) An in vivo pot determination method was adopted, i.e., a sample of the compound to be tested was dissolved with a small amount of solvent (the type of the solvent may be, for example, acetone, methanol and DMF, and selected according to the capability to dissolve the sample; the volume ratio of the amount of the solvent to the amount of sprayed solution is equal to or less than 0.05), diluted with water containing 0.1% Tween 80 and formulated into a required concentration of solution to be tested. Foliar spray treatment was carried out with the compounds of the present invention at the designed concentrations. A blank control with clear water spray was set and repeated for three times. Disease inoculation was carried out on the second day after the treatment. After inoculation, the plants were placed in a phytotron for moisturizing cultivation (temperature: 25° C. on day, 20° C. at night, relative humidity 95-99%). […] After the control was fully diseased (generally one week), the control effects of the compounds were evaluated. For the result survey, A Manual of Assessment Keys for Plant Diseases compiled by American Phytopathological Society can be referred to, which uses 100-0 for representation. “100” level represents no disease and “0” level represents the most severe disease degree.
# [2] = tested on: cucumber downy mildew; assay: In vivo pot determination, control effect on cucumber downy mildew; conditions: 400 ppm, foliar spray, parallel comparison (Table 4)
# Experimental: as §1
# [3] = tested on: bacterial spot of cucumber (Pseudomonas syringae pv. lachrymans); assay: Field trial, control of bacterial spot of cucumber; assay type: in vivo; conditions: whole plant spray three times at 7 day interval, investigated 7 days after last delivery
# Experimental: Compounds 47 and 97 were selected from the above compounds for field trial to control bacterial spot of cucumber (Pseudomonas syringae pv. lachrymans). The treatment dose of the test drug was 400 mg/L, and the treatment dose of a control drug CK2 was 700 mg/L. The test drug and the control drug were arranged in random blocks; the plot area was 15 m^2; and repetition was conducted for 3 times. The drug delivery mode was the whole plant spray. Drug delivery was conducted for three times, with an interval of 7 days, and control effect investigation was carried out 7 days after the last drug delivery. During investigation, 5 points in each plot were sampled; all leaves were investigated; and disease indexes and control effects were calculated according to the percentage level of diseased spot area of each leaf in the whole leaf area.
# [4] = tested on: melon bacterial fruit blotch; assay: Control effect on melon bacterial fruit blotch (seed soak, greenhouse); assay type: in vivo; conditions: 400 mg/L, seeds soaked in bacteria plus compound solution
# Experimental: (§2) The compounds of the present invention are used to determine the control effect on various plant bacterial diseases. For different bacterial diseases, the test procedures are as follows:
# Melon bacterial fruit blotch: the compound to be tested is dissolved with a small amount of N,N dimethylformamide and diluted with water to the required concentration. The pathogenic bacteria cultured to a stable growth stage is evenly mixed with a quantitative compound solution; the germinated melon seeds are soaked in the mixed solution of a bacteria solution and the compound for half an hour; then, the seeds are sown in an earthworm soil culture cup and put into a greenhouse for moisturizing cultivation for two weeks generally; and the control effect is investigated after full onset of diseases through control.
# [5] = tested on: soft rot of Chinese cabbage; assay: Control effect on soft rot of Chinese cabbage (leaf piece, spray, needle wound inoculation); assay type: in vivo, soft rot bacteria of Chinese cabbage; conditions: 400 mg/L, sprayed on leaf, 48 hours in the dark
# Excerpt: as §2
# Soft rot of Chinese cabbage: 2 cm of square Chinese cabbage leaf is cut and placed in a glass petri dish lined with double-layer filter paper. A compound dissolved in N,N dimethylformamide and diluted with water to a required concentration is sprayed onto the surface of the Chinese cabbage leaf. After the medicinal liquid on the surface of the Chinese cabbage leaf is dried in a fume hood, the surface of the Chinese cabbage leaf is acupunctured by using an inoculating needle to cause a wound. […] of soft rot bacteria of Chinese cabbage cultured to a stable growth period is added to the wound for inoculation. Finally, the test materials are placed in an incubator and cultured for 48 hours in the dark; and the control effect is investigated after full onset of diseases through control.
Compound,control effects on melon bacterial fruit blotch [4] [%],control effects on soft rot of Chinese cabbage [5] [%],also measured
"N#CC(C#N)=NOCc1cnc(Cl)s1 [CK1, reference compound]",,,Control Effects on Soybean Rust (%) ([1]; 100 ppm): 0%; Control Effects on Soybean Rust (%) ([1]; 200 ppm): 0%; Control Effects on Cucumber Downy Mildew (%) [2]: 0%
"N#CC(C#N)=NOCc1csc(-c2ccccc2)n1 [CK2, reference compound]",,,Control Effect (%) ([3]; active ingredient dose 700 mg/L): 76.89%; Control Effects on Cucumber Downy Mildew (%) [2]: 0%
"N#CC(C#N)=NOCc1csc(-c2ccc(Cl)cc2)n1 [CK3, reference compound]",,,Control Effects on Cucumber Downy Mildew (%) [2]: 0%
N#CC(C#N)=NOCc1csc(NC(=O)c2ccc(Cl)cc2)n1 [Compound 4],100,100,
N#CC(C#N)=NOCc1csc(NC(=O)c2ccccc2F)n1 [Compound 5],100,100,
N#CC(C#N)=NOCc1csc(NC(=O)c2cccc(F)c2)n1 [Compound 6],100,100,
N#CC(C#N)=NOCc1csc(NC(=O)c2ccc(Br)cc2)n1 [Compound 10],,,Control Effects on Soybean Rust (%) ([1]; 100 ppm): 100%; Control Effects on Soybean Rust (%) ([1]; 200 ppm): 100%
N#CC(C#N)=NOCc1csc(NC(=O)c2ccccc2C(F)(F)F)n1 [Compound 20],100,100,Control Effects on Cucumber Downy Mildew (%) [2]: 100%
N#CC(C#N)=NOCc1csc(NC(=O)c2ccc(C(F)(F)F)cc2)n1 [Compound 22],100,100,
N#CC(C#N)=NOCc1csc(NC(=O)c2ccccc2OC(F)(F)F)n1 [Compound 23],100,100,Control Effects on Soybean Rust (%) ([1]; 100 ppm): 100%; Control Effects on Soybean Rust (%) ([1]; 200 ppm): 100%
N#CC(C#N)=NOCc1csc(NC(=O)c2ccc(Cl)cc2Cl)n1 [Compound 34],100,100,
N#CC(C#N)=NOCc1csc(NC(=O)c2ccc(Cl)c(Cl)c2)n1 [Compound 36],100,100,
N#CC(C#N)=NOCc1csc(NC(=O)c2ccc([N+](=O)[O-])c(F)c2)n1 [Compound 45],100,100,Control Effects on Cucumber Downy Mildew (%) [2]: 100%
"N#CC(C#N)=NOCc1csc(N)n1 [Compound 47, ((2-aminothiazole-4-yl)methoxy)iminoimide dicyanide]",100,100,Control Effects on Soybean Rust (%) ([1]; 100 ppm): 85%; Control Effects on Soybean Rust (%) ([1]; 200 ppm): 100%; Control Effect (%) ([3]; active ingredient dose 400 mg/L): 77.00%
N#CC(C#N)=NOCc1csc(NC(=O)c2cccnc2)n1 [Compound 65],100,100,
N#CC(C#N)=NOCc1csc(NC(=O)c2ccc(F)c(C(F)(F)F)c2)n1 [Compound 74],100,100,

Compound,control effects on melon bacterial fruit blotch [4] [%],control effects on soft rot of Chinese cabbage [5] [%],also measured
N#CC(C#N)=NOCc1csc(NC(=O)c2ccc(F)cc2F)n1 [Compound 86],100,100,
N#CC(C#N)=NOCc1csc(NC(=O)c2ccc(F)c(F)c2)n1 [Compound 87],100,100,
N#CC(C#N)=NOCc1csc(NC(=O)c2ccccc2)n1 [Compound 95],100,100,
CC=CC(=O)Nc1nc(CON=C(C#N)C#N)cs1 [Compound 117],100,100,Control Effects on Cucumber Downy Mildew (%) [2]: 100%
CCC(=O)Nc1nc(CON=C(C#N)C#N)cs1 [Compound 118],100,100,
N#CC(C#N)=NOCc1csc(NC(=O)C(F)(F)F)n1 [Compound 119],100,100,
CC(C)(C)OC(=O)Nc1nc(CON=C(C#N)C#N)cs1 [Compound 123],100,100,
N#CC(=NOCc1csc(NC(=O)c2ccccc2Cl)n1)C(N)=O [Compound 134],100,100,
N#CC(=NOCc1csc(N)n1)C(N)=O [Compound 179],100,100,Control Effects on Soybean Rust (%) ([1]; 100 ppm): 80%; Control Effects on Soybean Rust (%) ([1]; 200 ppm): 100%
Cc1ccc(S(=O)(=O)Nc2nc(CON=C(C#N)C(N)=O)cs2)cc1 [Compound 228],100,100,
CC(C)(C)OC(=O)Nc1nc(CON=C(C#N)C(N)=O)cs1 [Compound 253],100,100,
CC(=NNc1nc(CON=C(C#N)C#N)cs1)c1ccc(F)cc1 [Compound 361],100,100,
CCc1ccc(C(=O)Nc2nc(CON=C(C#N)C#N)cs2)cc1 [Compound 365],,,Control Effects on Soybean Rust (%) ([1]; 100 ppm): 100%; Control Effects on Soybean Rust (%) ([1]; 200 ppm): 100%
N#CC(C#N)=NOCc1csc(NC(=O)c2ccc3c(c2)OC(F)(F)O3)n1 [Compound 366],100,100,
N#CC(C#N)=NOCc1csc(NN=C(c2ccc(Cl)cc2)c2ccc(Cl)cc2)n1 [Compound 367],100,100,
